Measured values from patent publication US20120204273A1, “COMPOSITIONS RELATING TO A PHOSPHOPROTEIN AND METHODS OF USE” (SANFORD-BURNHAM MEDICAL RESEARCH INSTITUTE, priority 2010, published 2012).

How the values were obtained:
3T3-L1 adipocytes = experiment: Endogenous GLUT4 accumulation in the TIRF zone (fixed adipocytes); assay type: cell-based, mouse; details: 100 nM insulin; scrambled siRNA
Protocol: FIG. 2, panels A-C show knockdown of CDP138 in 3T3-L1 adipocytes inhibits insulin-stimulated glucose transport (A) and myc-GLUT4-GFP translocation (B), but not endogenous GLUT4 movement to the periphery detected in TIRF zone (C). (A): Differentiated adipocytes at day 5 were transfected with siRNAs against mouse 5730419I09Rik or the scrambled siRNA (Scr) as described earlier (Jiang et al., 2003) for 60 hrs, then serum starved overnight. Cells were then treated with or without insulin (1 nM and 100 nM) for 30 min for the glucose uptake assay, or 15 min for immunoblotting of CDP138, pAkt, Akt and β-actin. […] Cell surface Myc-GLUT4-GFP was detected with anti-myc monoclonal Ab (9E10) and Alexa Fluor 568-labeled goat anti-mouse IgG in non-permeablized cells. The Myc signal and GFP signal were quantified as previously described (Jiang et al., 2002). […] GLUT4 was detected with a goat anti-GLUT4 Ab and Alexa Fluor 488-conjugated donkey anti-goat Ab in permeabilized cells. […] We also quantified endogenous GLUT4 redistribution to the PM using total internal reflection fluorescence microscopy (TIRFM) with a setting of about 100 nm distance from the coverslip (FIG. 2C, top panel). For this experiment, endogenous GLUT4 was detected by immunofluorescent staining with a goat anti-GLUT4 Ab that recognizes the cytoplasmic C-terminus of GLUT4. […]

CDP138 = experiment: SILAC quantitative phosphoproteomics with PAS antibody immunoprecipitation in 3T3-L1 adipocytes; assay type: cell-based, mouse; details: insulin-stimulated adipocytes
Protocol: Preparation of the Triple-Labeling SILAC Media. Arginine- and lysine-free DMEM was divided into three equal portions and 28 mg/liter of the three Arginine isotopes were added separately to make the Arg-0, Arg-6, and Arg-10 media, respectively. In addition, 48.7 mg/liter L-lysine, L-lysine-D4, and L-lysine13C6, 15N2 were supplemented separately to the three lots containing Arg-0, Arg-6, and Arg-10. Finally, glutamine and antibiotics were added to the media together with the full complement of amino acids (Arg-0/Lys-H4, Arg-6/Lys-D4, and Arg-10/Lys-8) and then sterile-filtered (Millipore). The sterile media were separated into two portions for dialyzed serum-containing and serum free media.
Mass Spectrometric Analysis. For SILAC quantitative proteomic study, the mixture of total lysates from the 3 different groups (as shown in FIG. 1A) was used for immunoprecipitation with PAS antibodies. Enriched proteins were resolved by SDS-PAGE. […] Only proteins that had at least 2 ion scores >20 were identified and quantified. MaxQuant was used to verify and quantify the resulting peptide pairs.
Identification of CDP138 as a novel Akt2 substrate using SILAC-based quantitative proteomics. […] The tryptic peptides were subsequently analyzed by tandem mass spectrometry (MS). […]

Substance: insulin
- enhancement of GLUT4 signal in the TIRF zone (3T3-L1 adipocytes): about 2.5 fold
- enrichment of CDP138 in PAS immunoprecipitate (CDP138): 2.8 fold
